# Data: ChEMBL document CHEMBL1201862, “PubChem BioAssay data set” (2004)
# Calls of active or inactive are those of the source.
# How the values were obtained:
# [1] = Trypanosoma cruzi growth suppression in host cells – NIH3T3 host cells, beta-gal luminescence, confirmation (AID 2044); format: functional, cell-based;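 also: intracellular parasites grown in NIH/3T3 mouse fibroblasts as host cells; luminescent beta-galactosidase reporter signal from transgenic T. cruzi replicating inside host cells; inhibitors lower the luminescence signal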
# [2] = NIH3T3 cell viability loss – ATP luminescence, mouse fibroblasts, counter-screen, dose response (AID 2010); format: functional, cell-based;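 also: cells exposed to compound for about 90 hours before reading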
# [3] = molecular target: T1, G-protein coupled receptor 55 (Homo sapiens, UniProt Q9Y2T6); assay: selective activators of receptor GPR55 – imaging, U2OS cells, beta-arrestin-GFP redistribution, primary screen (AID 1961); format: functional
# [4] = molecular target: T2, G-protein coupled receptor 35 (Homo sapiens, UniProt Q9HC97); assay: SAR analysis of Antagonists of the GPR35 Receptor using an Image-Based Assay - Set 4. [Related pubchem assays (depositor defined):[…]]; format: functional
# [5] = molecular target: T3, Cannabinoid receptor 2 (Homo sapiens, UniProt P34972); assay: SAR analysis of antagonists of the Cannabinoid Receptor 2 using an Image-Based Assay - Set 2. [Related pubchem assays (depositor defined):AID1961, AID1965]; format: functional
# [6] = molecular target: T4, Cannabinoid receptor 1 (Homo sapiens, UniProt P21554); assay: SAR analysis of antagonists of the Cannabinoid Receptor 1 using an Image-Based Assay - Set 3. [Related pubchem assays (depositor defined):AID1961, AID1965]; format: functional
# [7] = molecular target: T3, Cannabinoid receptor 2; assay: SAR analysis of agonists of the Cannabinoid Receptor 2 using an Image-Based Assay - Set 2. [Related pubchem assays (depositor defined):AID1961, AID1965]; format: functional
# [8] = molecular target: T2, G-protein coupled receptor 35; assay: SAR analysis of Agonists of the GPR35 Receptor using an Image-Based Assay - Set 3. [Related pubchem assays (depositor defined):AID1961, AID1965]; format: functional
# [9] = molecular target: T1, G-protein coupled receptor 55; assay: SAR analysis of selective Agonists of GPR55 using an Image-Based Assay - Set 2. [Related pubchem assays (depositor defined):AID1961, AID1965]; format: functional
# [10] = molecular target: T4, Cannabinoid receptor 1; assay: SAR analysis of agonists of the Cannabinoid Receptor 1 using an Image-Based Assay - Set 3. [Related pubchem assays (depositor defined):AID1961, AID1965]; format: functional
# [11] = molecular target: T5, Short transient receptor potential channel 4 (Mus musculus, UniProt Q9QUQ5); assay: calcium entry via TRPC4 opening agents – cell-based, HEK293 TRPC4/mu-opioid, Fluo-4 calcium, dose response (AID 434937); format: functional
# T5 sequence (Q9QUQ5 whole entry): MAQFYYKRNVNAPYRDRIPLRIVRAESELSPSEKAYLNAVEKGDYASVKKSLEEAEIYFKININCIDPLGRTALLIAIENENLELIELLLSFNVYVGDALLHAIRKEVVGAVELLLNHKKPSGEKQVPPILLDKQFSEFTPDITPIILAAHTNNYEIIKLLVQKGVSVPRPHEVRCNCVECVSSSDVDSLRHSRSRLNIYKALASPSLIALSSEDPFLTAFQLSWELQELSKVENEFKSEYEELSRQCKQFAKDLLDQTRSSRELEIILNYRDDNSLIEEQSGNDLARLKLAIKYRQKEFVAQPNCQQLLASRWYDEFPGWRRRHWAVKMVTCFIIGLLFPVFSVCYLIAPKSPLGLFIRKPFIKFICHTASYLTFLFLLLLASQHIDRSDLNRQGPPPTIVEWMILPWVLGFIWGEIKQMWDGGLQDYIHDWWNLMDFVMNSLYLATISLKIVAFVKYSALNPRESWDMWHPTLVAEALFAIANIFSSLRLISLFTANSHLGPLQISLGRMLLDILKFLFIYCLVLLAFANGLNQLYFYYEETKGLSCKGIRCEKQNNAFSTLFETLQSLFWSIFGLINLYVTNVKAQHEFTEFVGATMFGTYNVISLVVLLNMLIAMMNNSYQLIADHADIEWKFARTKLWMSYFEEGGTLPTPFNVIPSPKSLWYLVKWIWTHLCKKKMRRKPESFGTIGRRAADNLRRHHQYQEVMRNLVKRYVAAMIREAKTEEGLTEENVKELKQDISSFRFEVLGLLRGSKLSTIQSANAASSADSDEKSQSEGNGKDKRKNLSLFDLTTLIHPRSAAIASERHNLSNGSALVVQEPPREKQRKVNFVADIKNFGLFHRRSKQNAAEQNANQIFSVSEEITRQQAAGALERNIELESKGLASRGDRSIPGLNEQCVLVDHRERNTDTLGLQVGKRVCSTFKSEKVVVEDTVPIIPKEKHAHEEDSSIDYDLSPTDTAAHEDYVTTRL
# [12] = molecular target: T6, Hexokinase HKDC1 (Homo sapiens, UniProt Q2TB90); assay: inhibition of HKDC1 glucose phosphorylation – biochemical, W721R variant, dose response (AID 504729); format: functional
# T6 sequence (Q2TB90 whole entry): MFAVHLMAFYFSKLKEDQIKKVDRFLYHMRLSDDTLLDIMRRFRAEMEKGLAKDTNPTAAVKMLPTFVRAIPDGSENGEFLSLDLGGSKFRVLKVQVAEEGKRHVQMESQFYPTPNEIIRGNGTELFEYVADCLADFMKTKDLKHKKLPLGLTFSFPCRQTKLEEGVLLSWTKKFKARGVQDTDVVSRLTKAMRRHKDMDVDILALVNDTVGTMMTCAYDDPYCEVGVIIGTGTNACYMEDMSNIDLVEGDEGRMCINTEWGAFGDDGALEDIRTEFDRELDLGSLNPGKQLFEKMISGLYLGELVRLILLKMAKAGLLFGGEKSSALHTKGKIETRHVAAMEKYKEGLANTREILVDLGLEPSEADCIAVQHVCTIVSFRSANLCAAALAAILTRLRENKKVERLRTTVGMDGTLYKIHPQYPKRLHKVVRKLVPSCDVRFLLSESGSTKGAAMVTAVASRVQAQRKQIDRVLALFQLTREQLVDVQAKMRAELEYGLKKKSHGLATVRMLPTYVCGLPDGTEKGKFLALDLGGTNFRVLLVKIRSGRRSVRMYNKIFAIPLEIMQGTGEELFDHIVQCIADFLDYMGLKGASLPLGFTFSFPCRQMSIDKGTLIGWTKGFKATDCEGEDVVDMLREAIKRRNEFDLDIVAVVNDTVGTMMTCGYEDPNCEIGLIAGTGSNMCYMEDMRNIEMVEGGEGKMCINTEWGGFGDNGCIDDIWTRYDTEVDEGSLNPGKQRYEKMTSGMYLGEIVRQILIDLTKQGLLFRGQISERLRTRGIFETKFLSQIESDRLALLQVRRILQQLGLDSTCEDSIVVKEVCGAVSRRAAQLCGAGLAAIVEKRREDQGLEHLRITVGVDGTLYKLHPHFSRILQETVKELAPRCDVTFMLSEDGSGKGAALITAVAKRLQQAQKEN
# T1 sequence (Q9Y2T6 whole entry): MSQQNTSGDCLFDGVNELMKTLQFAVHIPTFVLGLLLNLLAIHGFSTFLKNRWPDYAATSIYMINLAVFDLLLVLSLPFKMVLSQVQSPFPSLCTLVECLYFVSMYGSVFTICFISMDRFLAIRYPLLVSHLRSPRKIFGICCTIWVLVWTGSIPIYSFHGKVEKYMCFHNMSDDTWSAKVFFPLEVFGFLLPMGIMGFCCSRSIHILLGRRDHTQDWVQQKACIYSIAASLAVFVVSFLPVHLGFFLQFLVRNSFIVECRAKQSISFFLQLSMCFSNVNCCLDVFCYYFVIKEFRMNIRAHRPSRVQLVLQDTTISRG
# T3 sequence (P34972 whole entry): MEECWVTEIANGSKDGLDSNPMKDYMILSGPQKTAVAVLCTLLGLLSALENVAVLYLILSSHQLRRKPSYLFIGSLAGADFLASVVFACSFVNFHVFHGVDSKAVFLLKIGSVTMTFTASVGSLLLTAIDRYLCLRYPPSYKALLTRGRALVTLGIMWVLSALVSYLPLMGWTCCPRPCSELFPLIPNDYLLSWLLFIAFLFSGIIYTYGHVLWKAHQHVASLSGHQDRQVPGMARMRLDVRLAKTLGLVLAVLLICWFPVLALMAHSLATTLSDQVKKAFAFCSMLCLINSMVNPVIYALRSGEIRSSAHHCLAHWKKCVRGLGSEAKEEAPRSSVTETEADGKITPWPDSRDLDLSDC
# T2 sequence (Q9HC97 whole entry): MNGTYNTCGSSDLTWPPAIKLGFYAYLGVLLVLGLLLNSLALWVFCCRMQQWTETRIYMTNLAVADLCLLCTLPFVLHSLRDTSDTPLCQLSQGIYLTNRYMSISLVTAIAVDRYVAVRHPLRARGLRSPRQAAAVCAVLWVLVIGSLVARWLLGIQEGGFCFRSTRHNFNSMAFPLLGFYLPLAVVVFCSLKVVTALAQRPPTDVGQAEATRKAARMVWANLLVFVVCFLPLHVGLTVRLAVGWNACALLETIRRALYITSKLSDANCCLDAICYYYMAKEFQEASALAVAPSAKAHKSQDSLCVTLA
# T4 sequence (P21554 whole entry): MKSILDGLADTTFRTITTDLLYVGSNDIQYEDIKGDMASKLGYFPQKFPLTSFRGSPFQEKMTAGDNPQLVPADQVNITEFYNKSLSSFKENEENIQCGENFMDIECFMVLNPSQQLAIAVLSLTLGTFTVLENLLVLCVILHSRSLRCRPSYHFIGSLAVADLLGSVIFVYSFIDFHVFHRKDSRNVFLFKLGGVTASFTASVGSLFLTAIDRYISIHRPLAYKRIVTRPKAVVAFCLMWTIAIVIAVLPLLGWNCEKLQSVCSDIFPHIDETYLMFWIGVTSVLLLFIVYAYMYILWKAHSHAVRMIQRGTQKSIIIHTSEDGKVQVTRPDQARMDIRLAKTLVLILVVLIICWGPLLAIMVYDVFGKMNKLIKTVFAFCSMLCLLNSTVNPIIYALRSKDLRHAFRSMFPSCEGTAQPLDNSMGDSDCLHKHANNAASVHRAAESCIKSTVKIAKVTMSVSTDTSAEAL
Structure (SMILES),EC50 [3],IC50 [4],IC50 [5],IC50 [6],EC50 [7],EC50 [8],EC50 [9],EC50 [10],also measured
Cn1c(SCC(=O)N2c3ccccc3Sc3ccccc32)nc2ccccc21,1.29 µM (active),–,–,–,–,–,–,–,EC50 [1]: 2.77 µM (active); EC50 [2]: > 30 µM (not active)
COc1ccccc1-n1cnc2cc(NCc3ccccc3O)ccc21,1.51 µM (active),–,–,–,–,–,–,–,–
CN(C)S(=O)(=O)c1ccc(Cl)c(C(=O)N2CCN(c3ccc([N+](=O)[O-])cc3)CC2)c1,–,> 32 µM (inactive),> 32 µM (inactive),> 32 µM (inactive),> 32 µM (inactive),> 32 µM (inactive),6.98 µM (active),> 32 µM (inactive),–
O=C(NC1CCCN(Cc2ccc(Cl)cc2)C1)C1CCC1 (stereo not given),–,–,–,–,–,–,–,–,EC50 [11]: 1.33 µM (active)
COP(=O)(OC)c1ccc(NCc2cc(O)ccc2O)cc1,–,–,–,–,–,–,–,–,IC50 [12]: 9.51 µM (active)
CC(C)Oc1ccc(S(=O)(=O)N2CCOCC2)cc1NC(=O)c1cc2c(s1)CCCCC2,–,> 32 µM (inactive),> 32 µM (inactive),27.5 µM (inactive),> 32 µM (inactive),> 32 µM (inactive),> 32 µM (inactive),> 32 µM (inactive),–
